From US4798828A, “Heterocyclic-methylene-penems” (Beecham Group p.l.c., priority 1984, dated 1989)
Converted amounts (≈) assume the structure as drawn.

Columns and labels:
Assay in all cases: Antibacterial activity of compounds alone (MIC)
Format in all cases: cell-based
Details in all cases: compound alone, amoxycillin: typical MIC's from a number of tests, read-out: MIC (minimum inhibitory concentration)
E aerogenes N1 = test system: E aerogenes N1
Description: (§1) The following Table 1 summaries the antibacterial activity of selected compounds according to the invention (which are identified by compound numbers as given in the examples) against selected micro-organisms and, for comparison purposes, also gives the same data for amoxycillin. The data is given in the form of MIC values (minimum inhibitory concentration)in μg/ml.

P mirabilis C889 = test system: P mirabilis C889
Description: as §1

C freundii Mantio = test system: C freundii Mantio
Description: as §1

E coli JT410 = test system: E coli JT410
Description: as §1

Compound	MIC (E aerogenes N1) [µg/mL]	MIC (P mirabilis C889) [µg/mL]	MIC (C freundii Mantio) [µg/mL]	MIC (E coli JT410) [µg/mL]
O=C(O)C1=CSC2/C(=C\c3ccns3)C(=O)N12 (racemic) [Compound 11, (5RS) Sodium (Z)-6-(5-Isothiazolylmethylene)penem-3-carboxylate]	> 100	> 100	> 100	> 100
O=C(O)C1=CSC2/C(=C\c3ccon3)C(=O)N12 (racemic) [Compound 43, (5RS) Sodium (Z)-6-(Isoxazol-3-ylmethylene)penem-3-carboxylate]	> 512	256	256	> 512
Cc1nc(/C=C2/C(=O)N3C(C(=O)O)=CSC23)co1 (racemic) [Compound 78, (5RS) Sodium (Z)-6-[(2-methyloxazol-4-yl)methylene]penem-3-carboxylate]	> 512	256	> 512	> 512
CC1(C)S[C@@H]2[C@H](NC(=O)[C@H](N)c3ccc(O)cc3)C(=O)N2[C@H]1C(=O)O [Amoxycillin, reference compound]	512 (≈ 1400 µM)	> 512	> 512	256 (≈ 701 µM)

Now from value to molecule:

MIC (E aerogenes N1) [µg/mL]	MIC (P mirabilis C889) [µg/mL]	MIC (C freundii Mantio) [µg/mL]	MIC (E coli JT410) [µg/mL]	Compound
128	128	128	64	Cn1cc(/C=C2/C(=O)N3C(C(=O)O)=CSC23)nn1 (racemic) [88(a), (5RS) Sodium (Z)-6-(1-methyl-1,2,3-triazol-4-yl-methylene)penem-3-carboxylate]
512	256	256	512	Cn1ccc(/C=C2/C(=O)N3C(C(=O)O)=CSC23)n1 (racemic) [Compound 169, (5RS) Sodium (Z)-6-(1-methylpyrazol-3-ylmethylene)penem-3-carboxylate]
256	64	64	32	Cn1cc(/C=C2/C(=O)N3C(C(=O)O)=CS[C@H]23)nn1 [Compound 158, (5R) Sodium (Z)-6-(1-methyl-1,2,3-triazol-4-ylmethylene) penem-3-carboxylate]
